# Source: article PMC8116589, “Distinguishing Signal From Noise in Immunopeptidome Studies of Limiting-Abundance Biological Samples: Peptides Presented by I-A^b in C57BL/6 Mouse Thymus” (Frontiers in Immunology, 2021)
# Where no end group is shown, it is not given here. [ ]: non-standard residue; d: D form.
# T1: I-A^b (Mus musculus, UniProt P14434+P14483)
# T1 sequence (P14434 24-218 limits assumed): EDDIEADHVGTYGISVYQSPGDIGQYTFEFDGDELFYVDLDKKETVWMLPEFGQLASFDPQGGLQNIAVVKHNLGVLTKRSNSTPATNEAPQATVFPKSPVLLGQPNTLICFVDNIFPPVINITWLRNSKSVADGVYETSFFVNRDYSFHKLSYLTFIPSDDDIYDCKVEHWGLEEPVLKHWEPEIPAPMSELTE
# T1 sequence (P14483 28-226 limits assumed): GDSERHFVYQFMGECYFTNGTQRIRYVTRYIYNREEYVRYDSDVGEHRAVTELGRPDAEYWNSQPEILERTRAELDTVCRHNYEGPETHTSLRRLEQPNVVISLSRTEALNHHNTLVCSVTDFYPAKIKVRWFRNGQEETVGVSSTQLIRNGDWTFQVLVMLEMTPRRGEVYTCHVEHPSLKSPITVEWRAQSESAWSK
# B1: … (Semaphorin-4D peptide) (peptide)
# peptide: GRKFVYAGSNSGVVQ
# B2: … (Ig mu chain C region peptide) (peptide)
# peptide: LPQEKYVTSAPMPEPG
# B3: … (Murinoglobulin-1 peptide) (peptide)
# peptide: GKYTYGKPVPGHVKI
# B4: … (Alpha-enolase peptide) (peptide)
# peptide: PSRYITPDQLADLYK
# B5: q… (Complement C3 peptide) (peptide)
# peptide: QQLAFKQPSSAYAAFN
# B6: … (Sortilin-related receptor peptide) (peptide)
# peptide: RVLIPYQGPSSDYVVVK
# B7: … (B-cell antigen receptor complex-associated protein alpha chain peptide) (peptide)
# peptide: GTTGQLFFPEVNKNHR
# B8: … (T-lymphocyte surface antigen Ly-9 peptide) (peptide)
# peptide: HLNTYDGSHTLRVSQS
# B9: … (Retinoid-inducible serine carboxypeptidase peptide) (peptide)
# peptide: KWKALYTDPKSSETA
# B10: … (Heat shock protein HSP 90-beta peptide) (peptide)
# peptide: LSSGFSLEDPQTHSNRIY
# B11: … (Gelsolin isoform 2 peptide) (peptide)
# peptide: AAYLWVGAGASEAEKT
# B12: … (Complement C4-B peptide) (peptide)
# peptide: ARYIYGKPVQGVAYTR
# B13: … (B-cell differentiation antigen CD72 peptide) (peptide)
# peptide: DGELTYENVQVSPVPGGPP
# B14: … (Complement receptor type 2 peptide) (peptide)
# peptide: LLPKYSFAKPSIVSDK
# B15: … (Protein tyrosine phosphatase receptor type C-associated protein peptide) (peptide)
# peptide: SDLHAFSGSAAWDDSAG
# B16: … (Marginal zone B- and B1-cell-specific protein peptide) (peptide)
# peptide: IYEAYRQGQANLEAL
# B17: … (Histone H2AX peptide) (peptide)
# peptide: AVLLPKKSSATVGPKAPAVGK
# B18: … (H-2 class II histocompatibility antigen, A beta chain peptide) (peptide)
# peptide: SLRRLEQPNVVISLSR
# B19: … (Prostaglandin-H2 D-isomerase isoform 2 peptide) (peptide)
# peptide: APGHYTYSSPHSGSIH
# B20: … (Protein Igha peptide) (peptide)
# peptide: KDITTVNFPPALASGGG
# B21: … (Sortilin-related receptor peptide) (peptide)
# peptide: GIDPYDQPNAIYIER
# B22: … (Hematological and neurological expressed 1 protein peptide) (peptide)
# peptide: EKPVPAAPVPSPVAPAP
# B23: … (Fc receptor-like A peptide) (peptide)
# peptide: GPGSREAASPVAITVQE
# B24: … (Nucleophosmin peptide) (peptide)
# peptide: VEEDAESEDEDEEDVKLLGMSGK
# B25: … (Protein tyrosine phosphatase receptor type C-associated protein peptide) (peptide)
# peptide: SDLHAFSGSAAWDDS
# B26: … (Inter alpha-trypsin inhibitor, heavy chain 4 peptide) (peptide)
# peptide: AGKLQDQGPDVLLAKVS
# B27: … (NEDD4 family-interacting protein 1 peptide) (peptide)
# peptide: FPKPPSYNVATTLPSYDE
# B28: … (78 kDa glucose-regulated protein peptide) (peptide)
# peptide: ITPSYVAFTPEGERL
# B29: … (Beta-2-microglobulin peptide) (peptide)
# peptide: YVTQFHPPHIEIQ
# B30: … (L-amino-acid oxidase isoform 2 peptide) (peptide)
# peptide: GALLLNAPVVSITQGR
# B31: … (Gelsolin isoform 2 peptide) (peptide)
# peptide: AMLQVLGPKPALPEG
# B32: … (H-2 class II histocompatibility antigen, A beta chain peptide) (peptide)
# peptide: HNYEGPETHTSLRRL
# B33: … (CCR4-NOT transcription complex subunit 3 peptide) (peptide)
# peptide: APTSALGPKASPAPS
# B34: … (Tissue alpha-L-fucosidase peptide) (peptide)
# peptide: GIVNLKSPKTTSATKI
# B35: … (Protein EVI2B peptide) (peptide)
# peptide: KPTVTVVSPLPNDSINPQP
# B36: … (B-cell antigen receptor complex-associated protein alpha chain peptide) (peptide)
# peptide: PGQGTTGQLFFPEVNKN
# B37: … (TGF-beta receptor type-2 peptide) (peptide)
# peptide: VGTARYMAPEVLESR
# B38: … (Protein Ighv2-2 peptide) (peptide)
# peptide: GGSTDYNAAFISRLS
# B39: … (Serum albumin peptide) (peptide)
# peptide: LVRYTQKAPQVSTPTLV
# B40: … (Platelet endothelial cell adhesion molecule isoform 4 peptide) (peptide)
# peptide: KPSIFHDAKSEIIKGHA
# B41: … (Tenascin peptide) (peptide)
# peptide: ATVSWRAPTAQVESFR
# B42: …mV (Murinoglobulin-1 peptide) (peptide)
# peptide: LEISYTGSRPASN[code m]V
# modifications: not fully specified; printed as LEISYTGSRPASNmV (Murinoglobulin-1 peptide)
# B43: … (TGF-beta receptor type-2 peptide) (peptide)
# peptide: VGTARYMAPEVLESRM
# B44: … (Apolipoprotein E peptide) (peptide)
# peptide: TNPIITPVAQENQ
# B45: … (Alpha-enolase peptide) (peptide)
# peptide: HIADLAGNPEVILPVPA
# B46: … (Protein shisa-5 isoform 2 peptide) (peptide)
# peptide: GPPPYHESLAGASQPP
# Assays:
# [1] = target: T1, I-A^b; assay: biochemical
# Procedure: A fluorescence polarization (FP) assay was used to measure the IC50 of using N-terminally-acetylated CLIP peptide labeled with Alexa Fluor 488 tetrafluorophenyl ester (Invitrogen, Carlsbad, CA) via the primary amine at K3 as probe peptide as previously described ([34]). The binding reactions were carried in buffer conditions of 100 mM sodium citrate, 50 mM sodium chloride, 0.1% octyl β-D-glucopyranoside, 5 mM ethylenediaminetetraacetic acid, 0.1% sodium azide, 0.2 mM iodoacetic acid, 1 mM dithiothreitol). […] Thrombin is added during all the reactions at a concentration of 1U/ug and inactivated after 3hrs of reaction using 0.1mM phenylmethanesulfonyl fluoride. […] For calculating IC50 values, 100 nM I-A^b-3R was incubated with 25 nM Alexa488-labeled CLIP probe peptide, in combination with a serial dilution of test peptides, beginning at 100 µM followed by 5-fold dilutions in presence of 0.5µM HLA-DM. The reaction mixture was incubated at 37°C. The capacity of each test peptide to compete for binding of probe peptide was measured by FP after 72 h at 37°C. The assay was read using a Victor X5 Multilabel plate reader (PerkinElmer, Shelton, CT). FP values were converted to fraction bound by calculating [(FP_sample - FP_free)/(FP_no_comp - FP_free)], where FP_sample represents the FP value in the presence of test peptide; FP_free represents the value for free Alexa488-conjugated CLIP peptide; and FP_no_comp represents values in the absence of competitor peptide. We plotted fraction bound versus concentration of test peptide and fit the curve to the equation y = 1/(1 +[pep]/IC50), where [pep] is the concentration of test peptide, y is the fraction of probe peptide bound at that concentration of test peptide, and IC50 is the 50% inhibitory concentration of the test peptide.
# [2] = target: soluble I-A^b-3R, mouse MHC-II protein (recombinant I-A^b) (mouse); assay: fluorescence polarisation; competition: 100 nM I-A^b-3R (3R cut off by thrombin, 1 U/ug), 25 nM Alexa488-labeled CLIP probe peptide, test peptide from 100 uM in 5-fold dilutions, 0.5 uM HLA-DM, read after 72 h at 37 C; 100 mM sodium citrate, 50 mM NaCl, 0.1% octyl glucoside, 5 mM EDTA, 1 mM DTT; three independent experiments, mean and SD
Molecule,IC50 [1] [nM],IC50 [2] [nM]
AAYLWVGAGASEAEKT,276,
AGKLQDQGPDVLLAKVS,378,
AGTGVDNVDLEAATR,57500,
AMLQVLGPKPALPEG,1170,
APGHYTYSSPHSGSIH,1580,
APTSALGPKASPAPS,2300,
AQRAGYKAAIVHNVDS,2420,
ARYIYGKPVQGVAYTR,153,
ATVSWRAPTAQVESFR,407,
AVLLPKKSSATVGPKAPAVGK,13600,
DGELTYENVQVSPVPGGPP,1360,
EKPVPAAPVPSPVAPAP,1140,
FPKPPSYNVATTLPSYDE,231,
GALLLNAPVVSITQGR,1660,
GGSTDYNAAFISRLS,4960,
GIDPYDQPNAIYIER,167,
GIVNLKSPKTTSATKI,12800,
GKYTYGKPVPGHVKI,399,
GPGSREAASPVAITVQE,467,
GPPPYHESLAGASQPP,1500,
GRKFVYAGSNSGVVQ,1480,
GTTGQLFFPEVNKNHR,2640,
HIADLAGNPEVILPVPA,13900,
HLNTYDGSHTLRVSQS,1360,
HNYEGPETHTSLRRL,797,
IRRYGVSQPDAVAAWK,250,

Molecule,IC50 [1] [nM],IC50 [2] [nM]
ISKQEYDESGPSIVHR,15200,
ITPSYVAFTPEGERL,1890,
IYEAYRQGQANLEAL [IYEAYRQGQANLEAL],1370,
KDITTVNFPPALASGGG,970,
KPSIFHDAKSEIIKGHA,4960,
KPTVTVVSPLPNDSINPQP,2250,
KWKALYTDPKSSETA,3450,
LLPKYSFAKPSIVSDK,179,
LNLPTGIPIVYEL,54400,
LPGELAKHAVSEGTKA,32000,
LPQEKYVTSAPMPEPG,562,
LSSGFSLEDPQTHSNRIY,13300,
LVRYTQKAPQVSTPTLV,765,
NDWTVDHPQTLFAWEG,445,
NVLRIINEPTAAAIA,337,
PGQGTTGQLFFPEVNKN,2900,
PHPYPALTPEQKKELSDIAHRIVAPGKG,10900,
PSRYITPDQLADLYK,2910,
QVLSWSSPVGSRTLA,152,
RVLIPYQGPSSDYVVVK,275,
RVTIAQGGVLPNIQ,26000,
SDLHAFSGSAAWDDS,1090,
SDLHAFSGSAAWDDSAG,1920,
SLRRLEQPNVVISLSR,93.8,
TNPIITPVAQENQ,1740,
VEEDAESEDEDEEDVKLLGMSGK,111000,

Molecule,IC50 [1] [nM],IC50 [2] [nM]
VGTARYMAPEVLESR,197,
VGTARYMAPEVLESRM,306,
YSMGMHTYQVG,74100,
YVTQFHPPHIEIQ,1070,
B1,,1480
B2,,562
B3,,399
B4,,2910
B5,,170
B6,,275
B7,,2640
B8,,1360
B9,,3450
B10,,13300
B11,,276
B12,,153
B13,,1360
B14,,179
B15,,1920
B16,,1370
B17,,13600
B18,,93.8
B19,,1580
B20,,970
B21,,167
B22,,1140

Molecule,IC50 [1] [nM],IC50 [2] [nM]
B23,,466
B24,,111000
B25,,1090
B26,,378
B27,,231
B28,,1890
B29,,1070
B30,,1660
B31,,1180
B32,,797
B33,,2300
B34,,12800
B35,,2250
B36,,2900
B37,,197
B38,,4960
B39,,765
B40,,4960
B41,,407
B42,,349
B43,,306
B44,,1740
B45,,13900
B46,,1500
